Experimental data reported in patent US6410566B1, “Cyclic amine derivatives and their use as drugs” (Teijin Limited, priority 2000, dated 2002).

Assays:
[1] = target: T1, binding of human MIP-1α to THP-1 cells (Homo sapiens, UniProt P32246); test: Inhibition of MIP-1α binding to THP-1 cells
T1 construct: endogenous in cells; host or cells: THP-1 (human monocytic leukemia cell line), whole cells
T1 sequence (P32246 1-355): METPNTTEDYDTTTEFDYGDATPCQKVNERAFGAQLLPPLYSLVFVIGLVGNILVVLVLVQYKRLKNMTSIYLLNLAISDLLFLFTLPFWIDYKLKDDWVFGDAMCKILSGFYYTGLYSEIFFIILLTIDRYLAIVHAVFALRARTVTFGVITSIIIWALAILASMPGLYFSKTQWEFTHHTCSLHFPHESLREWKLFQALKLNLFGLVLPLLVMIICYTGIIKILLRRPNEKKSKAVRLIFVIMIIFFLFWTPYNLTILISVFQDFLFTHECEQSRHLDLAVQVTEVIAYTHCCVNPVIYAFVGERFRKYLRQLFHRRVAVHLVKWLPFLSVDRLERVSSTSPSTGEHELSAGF
Method: Measurement of Inhibition of MIP-1α Binding to THP-1 Cells by Test Compounds
(§1) Human monocytic leukemia cell line THP-1 was suspended in assay buffer (RPMI-1640 (Gibco-BRL Co.) containing 0.1% BSA and 25 mM HEPES adjusted to pH 7.4) to give a cell suspension of a concentration of 1×10^7 cells/mL. The test compound was diluted in the assay buffer and used as the test compound solution. Iodinated human MIP-1α (DuPont NEN Co.) was diluted in assay buffer to 250 nCi/mL and used as the labeled ligand solution. In a 96 well filter plate (Millipore Co.), 25 μL of test compound solution, 25 μL of labeled ligand solution and 50 μL of cell suspension were aliquoted into each well in this order, stirred (total reaction volume 100 μL), and incubated for one hour at 18° C.
(§2) After the reaction, the reaction solution was filtered, and the filter was washed twice with 200 μL of cold PBS (200 μL of cold PBS was added and then filtered). The filter was air-dried and 25 μL of liquid scintillator was added into each well. The radioactivity retained by the cells on the filter were measured using TopCounit (Packard Instrument Co.).
To calculate the ability of test compounds to inhibit binding of human MIP-1α to THP-1 cells, non-specific binding determined by adding 100 ng of unlabeled human MIP-1α (Peprotech Co.) in place of the test compound was subtracted, while the counts with no test compound added was taken as 100%.
(§3) Inhibition (%)={1−(A−B)/(C−B)}×100
(A, counts with test compound added; B, counts with 100 ng of unlabeled human MIP-1α added; C, counts with [^125I]-labeled human MIP-1α added).

[2] = target: T2, binding of human MCP-1 to THP-1 cells (Homo sapiens, UniProt P41597); test: Inhibition of binding of [125I]-labeled baculovirus expressed human MCP-1 to THP-1 cells (Method 1); conditions: for inhibition at 100 µM: Method 1, at 100 μM
T2 construct: endogenous in cells; host or cells: THP-1 (human monocytic leukemia cell line), whole cells
T2 sequence (P41597 1-360 isoform P41597-2): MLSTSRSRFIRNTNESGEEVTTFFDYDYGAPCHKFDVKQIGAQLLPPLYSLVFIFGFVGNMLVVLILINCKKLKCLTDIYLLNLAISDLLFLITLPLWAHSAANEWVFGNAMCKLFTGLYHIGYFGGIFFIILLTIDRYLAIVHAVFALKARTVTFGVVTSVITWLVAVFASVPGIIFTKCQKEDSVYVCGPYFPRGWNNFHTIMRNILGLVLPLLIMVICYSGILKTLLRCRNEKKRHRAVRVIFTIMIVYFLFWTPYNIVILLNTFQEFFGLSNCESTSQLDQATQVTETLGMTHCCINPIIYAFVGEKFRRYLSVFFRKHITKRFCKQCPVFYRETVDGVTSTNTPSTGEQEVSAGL
Source text: Measurement of Inhibition of MCP-1 Binding to THP-1 Cells 1. Construction of recombinant baculovirus carrying the human MCP-1 gene Based on the previously published human MCP-1 gene sequence (for example T. Yoshirnura et al., FEBS Lett., 1989, 244, 487-493), two synthetic DNA primers ([NT] and [NT]) flanked by restriction enzyme sites were used to amplify a DNA fragment from cDNA derived from human endothelial cells (purchased from Kurabow Co.); the amplified fragment was cut with the restriction enzymes (PstI and XbaI), ligated into a transfer vector pVL1393 (Invitrogen Co.), and the resulting vector was co-transfected along with infectious baculovirus into Sf-9 insect cells and the supernatant was plaque assayed to yield human MCP-1 gene baculovirus recombinant. […] Using the method of K. Ishii et al. […] The culture supernatant was affinity purified using a heparin Sepharose column (Pharmacia Co.) and then further purified using reverse phase HPLC (Vydac C18 column) to prepare purified human MCP-1. […] 3-1. […] The test. compound was diluted in the assay buffer and used as the test compound solution. [^125I]-labeled human MCP-1 described above was diluted in assay buffer to 1 mCi/mL and used as the labeled ligand solution. In a 96 well filter plate (Millipore Co.), 25 μL of test compound solution, 25 μL of labeled ligand solution and 50 μL of cell suspension were aliquoted into each well in this order, stirred (total reaction volume 100 μL), and incubated for one hour at 18° C. After the reaction, the reaction solution was filtered, and the filter was washed twice with 200 μL of cold PBS (200 μL of cold PBS was added and then filtered). The filter was air-dried and 25 μL of liquid sciatillator was added into each well. The radioactivity retained by the cells on the filter were measured using TopCount (Packard Instrument Co.). To calculate the ability of test compound to inhibit binding of human MCP-1 to THP-1 cells, non-specific binding determined by adding 100 ng of unlabeled human MCP-1 in place of the test compound was subtracted, while the counts with no test compound added was taken as 100%. Inhibition (%)=(1-(A-B)/(C-B))×100 (A, counts with test compound added; B, counts with 100 ng of unlabeled human MCP-1 added; C, counts with [^125I]-labeled human MCP-1 added).

THP-1 cells = test: Inhibition of cell chemotaxis caused by MCP-1; type: cell-based; conditions: Homo sapiens, MCP-1 20 ng/mL, read-out: inhibition of cell migration IC50
Method: Measurement of Inhibition of Cell Chemotaxis
In order to determine the inhibition of cell chemotaxis by the compounds of this invention, we measured cell chemotaxis caused by monocyte chemotactic factor MCP-1 using the human monocytic leukemia cell line THP-1 as the chemotactic cell according to the method of Fall et al. (J. Immunol. Methods, 190, 33,239-247). 2×10^6 cells/mL of THP-1 cells (suspended in RPMI-1640 (Flow Laboratories Co.)+10% FCS) was placed in the upper chamber (200 μL) of a 96 well micro-chemotaxis chamber (Neuroprobe; registered tradename), and human recombinant MCP-1 in a same solution (Peprotech Co.) at a final concentration of 20 ng/mL was placed in the lower chamber, with a polycarbonate filter (PVP-free, Neuroprobe; registered tradename) placed between the two chambers. These were incubated at 37° C. for 2 hr in 5% CO2.
The filter was removed, and the cells which had migrated to the underside of the filter was fixed, stained using Diff Quick (Kokusai Shiyaku Co.) and then quantitated using a plate reader (Molecular Device Co.) at a wavelength of 550 nm to determine the index of cell migration as a mean of 3 wells. In addition, test compounds were placed in the upper and lower chambers along with THP-1 and MCP-1, respectively, and the inhibition of cell migration (inhibition IC50 (μM)) was determined.

[3] = target: T2, binding of human MCP-1 to THP-1 cells; test: Inhibition of binding of [125I]-labeled baculovirus expressed human MCP-1 to THP-1 cells (Method 2); conditions: for inhibition at 1 µM: Method 2, at 1 μM
Source text: 1. Construction of recombinant baculovirus carrying the human MCP-1 gene
Based on the previously published human MCP-1 gene sequence (for example T. Yoshirnura et al., FEBS Lett., 1989, 244, 487-493), two synthetic DNA primers (5′-[…]-3′ and 5′-[…]-3′) flanked by restriction enzyme sites were used to amplify a DNA fragment from cDNA derived from human endothelial cells (purchased from Kurabow Co.); the amplified fragment was cut with the restriction enzymes (PstI and XbaI), ligated into a transfer vector pVL1393 (Invitrogen Co.), and the resulting vector was co-transfected along with infectious baculovirus into Sf-9 insect cells and the supernatant was plaque assayed to yield human MCP-1 gene baculovirus recombinant.
2. Synthesis of [^125I]-labeled human MCP-1 expressed in baculovirus
Using the method of K. Ishii et al. (Biochem Biophys Research Communications, 1995, 206, 955-961), 5×10^6 Sf-6 insect cells was infected with 5×10^7 PFU (plaque forming units) of the above human MCP-1 recombinant baculovirus and cultured for 7 days in Ex-Cell 401 medium. The culture supernatant was affinity purified using a heparin Sepharose column (Pharmacia Co.) and then further purified using reverse phase HPLC (Vydac C18 column) to prepare purified human MCP-1. The purified human MCP-1 was protein labeled by Amersham Co. using the Bolton Hunter method to yield [^125I]-labeled baculovirus expressed human MCP-1 (specific activity 2000 Ci/mmol).
3-2. Measurement of inhibition of binding of [^125I]-labeled baculovirus expressed human MCP-1 to THP-1 cells (Method 2)
as §1, with “(50” for “(RPMI-1640 (Gibco-BRL Co.) containing 0.1% BSA and 25”, “HEPES,” for “HEPES adjusted to”, “7.4, 1.0 mM CaCl2, 5.0% mM MgCl2, 0.5% BSA)” for “7.4)”, “[^125I]-labeled” for “Iodinated”, “MCP-1 described above” for “MIP-1α (DuPont NEN Co.)”, “1 mCi/mL” for “250 nCi/mL”
as §2, with “TopCount” for “TopCounit”
To calculate the ability of test compound to inhibit binding of human MCP-1 to THP-1 cells, non-specific binding determined by adding 100 ng of unlabeled human MCP-1 in place of the test compound was subtracted, while the counts with no test compound added was taken as 100%.
as §3
(A, counts with test compound added; B, counts with 100 ng of unlabeled human MCP-1 added; C, counts with [^125I]-labeled human MCP-1 added).

SMILES | inhibition at 10 µM [1] [%] | inhibition at 100 µM [2] [%] | IC50 (THP-1 cells) [nM] | other results
O=C(CNC(=O)c1cccc(C(F)(F)F)c1)NCC1CCN(Cc2ccc(Cl)cc2)CC1 [Compound No. 461, 1-(4-chlorobenzyl)-4-[{N-(3-(trifluoromethyl)benzoyl)glycyl}aminomethyl]piperidine] | > 80 |  | < 100 | 
CC(C)[C@H](NC(=O)c1cccc(C#N)c1)C(=O)NCC1CCN(Cc2ccc(Cl)cc2)CC1 [Compound No. 619, 1-(4-Chlorobenzyl)-4-[{N-(3-cyanobenzoyl)valyl}aminomethyl]piperidine] | 50 to 80 |  |  | 
CN(CC1CCN(Cc2ccc(Cl)cc2)CC1)C(=O)CNC(=O)c1cccc(C(F)(F)F)c1 [Compound No. 520, 1-(4-chlorobenzyl)-4-[N-methyl-N-{N-(3-(trifluoromethyl)benzoyl)glycyl}aminomethyl]piperidine] | 50 to 80 |  |  | inhibition at 10 µM ([2]; Method 1, at 10 μM): 50 to 80%
O=C(NCC(=O)N(CC1CCN(Cc2ccc(Cl)cc2)CC1)CC(c1ccccc1)c1ccccc1)c1ccccc1 [Compound No. 524, 4-{N-(N-Benzoylglycyl)-N-(2,2-diphenylethyl)aminomethyl}-1-(4-chlorobenzyl)piperidine] | 20 to 50 |  |  | 
O=C(CNC(=O)c1ccccc1)NCC1CCN(Cc2ccc(Cl)cc2)CC1 [Compound No. 458, 4-{(N-Benzoylglycyl)amino}methyl-1-(4-chlorobenzyl)piperidine] | 50 to 80 | > 80 |  | 

Second part, led by results:

inhibition at 10 µM [1] [%] | inhibition at 100 µM [2] [%] | IC50 (THP-1 cells) [nM] | SMILES | other results
> 80 | 20 to 50 |  | CC(C)c1ccc(S(=O)(=O)NCC(=O)NCC2CCN(Cc3ccc(Cl)cc3)CC2)cc1 [Compound No. 869, 1-(4-Chlorobenzyl)-4-[{N-(4-isopropylphenylsulfonyl)glycyl}aminomethyl]piperidine] | 
50 to 80 | 50 to 80 |  | O=C(CNC(=O)c1ccccc1)NC1CCN(Cc2ccc(Cl)cc2)C1 (centres unmarked) [compound 1, 3-(N-Benzoylglycyl)amino-1-(4-chlorobenzyl)pyrrolidine] | 
50 to 80 |  | < 100 | Nc1ccc(Br)cc1C(=O)NCC(=O)NCC1CCN(Cc2ccc(Cl)cc2)CC1 [Compound No. 1042, 4-{N-(2-amino-5-bromobenzoyl)glycyl}aminomethyl-1-(4-chlorobenzyl)piperidine] | inhibition at 2 µM [1]: 20 to 50%; inhibition at 1 µM [3]: > 80%; inhibition at 10 µM ([3]; Method 2, at 10 μM): > 80%
 |  | < 100 | Nc1cc(Cl)ccc1CN1CCC(CNC(=O)CNC(=O)c2cc(C(F)(F)F)ccc2N)CC1 [Compound No. 1919, 4-[{N-(2-Amino-5-trifluoromethylbenzoyl)glycyl}aminomethyl]-1-(2-amino-4-chlorobenzyl)piperidine] | inhibition at 2 µM [1]: 20 to 50%; inhibition at 1 µM [3]: > 80%
